Tested on: Blattella germanica
Test: Activity of different insecticides on timber, cement and tile
Assay type: in vivo
Excerpt: Example e) illustrates that other active ingredients as well can be used successfully in the context of this invention (as a diluted suspension concentration, i.e. as a spraying liquor of the invention). In addition to deltamethrin, both bendiocarb and beta-cyfluthrin and cyfluthrin can be encapsulated.

[1] = 8 mg/m^2 (reduced concentration), Cement
[2] = 8 mg/m^2 (reduced concentration), Tile
[3] = 8 mg/m^2 (reduced concentration), Timber
[4] = 25 mg/m^2 (standard concentration), Cement, 30-minute exposure
[5] = 25 mg/m^2 (standard concentration), Tile, 30-minute exposure
[6] = 25 mg/m^2 (standard concentration), Timber, 30-minute exposure
[7] = 4 mg/m^2 (reduced concentration), Cement
[8] = 4 mg/m^2 (reduced concentration), Tile
[9] = 4 mg/m^2 (reduced concentration), Timber
[10] = 12.5 mg/m^2 (standard concentration), Cement, 30-minute exposure
[11] = 12.5 mg/m^2 (standard concentration), Tile, 30-minute exposure
[12] = 12.5 mg/m^2 (standard concentration), Timber, 30-minute exposure
[13] = 50 mg/m^2 (reduced concentration), Cement
[14] = 50 mg/m^2 (reduced concentration), Tile
[15] = 100 mg/m^2 (standard concentration), Cement, 30-minute exposure
[16] = 100 mg/m^2 (standard concentration), Tile, 30-minute exposure

CC1(C)C(C=C(Cl)Cl)C1C(=O)OC(C#N)c1ccc(F)c(Oc2ccccc2)c1 (stereo not drawn) [cyfluthrin]
100%: Knockdown after 1 h [1] | Mortality after 24 h [1] | Knockdown after 1 h [2] | Mortality after 24 h [2] | Knockdown after 1 h [3] | Mortality after 24 h [3] | Knockdown after 1 h [4] | Mortality after 24 h [4] | Knockdown after 1 h [5] | Mortality after 24 h [5] | Knockdown after 1 h [6] | Mortality after 24 h [6]

CC1(C)C(C=C(Cl)Cl)C1C(=O)OC(C#N)c1ccc(F)c(Oc2ccccc2)c1 (stereo not drawn) [Beta-cyfluthrin, beta-cyfluthrin]
100%: Knockdown after 1 h [7] | Mortality after 24 h [7] | Knockdown after 1 h [8] | Mortality after 24 h [8] | Knockdown after 1 h [9] | Mortality after 24 h [9] | Knockdown after 1 h [10] | Mortality after 24 h [10] | Knockdown after 1 h [11] | Mortality after 24 h [11] | Knockdown after 1 h [12] | Mortality after 24 h [12]

CNC(=O)Oc1cccc2c1OC(C)(C)O2 [Bendiocarb, bendiocarb]
60%: Knockdown after 1 h (100 mg/m^2 (standard concentration), Timber, 30-minute exposure)
100%: Mortality after 24 h [13] | Knockdown after 1 h [14] | Mortality after 24 h [14] | Knockdown after 1 h [15] | Mortality after 24 h [15] | Knockdown after 1 h [16] | Mortality after 24 h [16] | mortality at 50 mg/m2 (Blattella germanica, 24 h, read-out: Mortality after 24 h) | mortality at 100 mg/m2 (Blattella germanica, read-out: Mortality after 24 h)
50%: Knockdown after 1 h (50 mg/m^2 (reduced concentration), Timber)
90%: Knockdown after 1 h [13]

CC1(C)[C@H](C(=O)O[C@H](C#N)c2cccc(Oc3ccccc3)c2)[C@@H]1C=C(Br)Br [Deltamethrin, deltamethrin]
100%: Knockdown after 1 h [7] | Mortality after 24 h [7] | Knockdown after 1 h [8] | Mortality after 24 h [8] | Knockdown after 1 h [9] | Knockdown after 1 h [10] | Mortality after 24 h [10] | Knockdown after 1 h [11] | Mortality after 24 h [11] | Knockdown after 1 h [12] | mortality at 4 mg/m2 (Blattella germanica, 24 h, 4 mg/m^2 (reduced concentration), Timber, read-out: Mortality after 24 h) | mortality at 12.5 mg/m2 (Blattella germanica, 12.5 mg/m^2 (standard concentration), Timber, 30-minute exposure, read-out: Mortality after 24 h)

— US9451764B2, “Composition comprising insecticide-wax particles” (priority 2010, dated 2016)
